Data from paper PMC6337391 (Molecules, 2019).
Read-outs that look alike come from different tables or passages of the source.

Experiments:
soybean lipoxygenase = molecular target: T1, soybean lipoxygenase (Glycine max, UniProt P08170); parameters: method as in PMID 25798685; settings: cited from earlier work
T1 sequence (P08170 1-839): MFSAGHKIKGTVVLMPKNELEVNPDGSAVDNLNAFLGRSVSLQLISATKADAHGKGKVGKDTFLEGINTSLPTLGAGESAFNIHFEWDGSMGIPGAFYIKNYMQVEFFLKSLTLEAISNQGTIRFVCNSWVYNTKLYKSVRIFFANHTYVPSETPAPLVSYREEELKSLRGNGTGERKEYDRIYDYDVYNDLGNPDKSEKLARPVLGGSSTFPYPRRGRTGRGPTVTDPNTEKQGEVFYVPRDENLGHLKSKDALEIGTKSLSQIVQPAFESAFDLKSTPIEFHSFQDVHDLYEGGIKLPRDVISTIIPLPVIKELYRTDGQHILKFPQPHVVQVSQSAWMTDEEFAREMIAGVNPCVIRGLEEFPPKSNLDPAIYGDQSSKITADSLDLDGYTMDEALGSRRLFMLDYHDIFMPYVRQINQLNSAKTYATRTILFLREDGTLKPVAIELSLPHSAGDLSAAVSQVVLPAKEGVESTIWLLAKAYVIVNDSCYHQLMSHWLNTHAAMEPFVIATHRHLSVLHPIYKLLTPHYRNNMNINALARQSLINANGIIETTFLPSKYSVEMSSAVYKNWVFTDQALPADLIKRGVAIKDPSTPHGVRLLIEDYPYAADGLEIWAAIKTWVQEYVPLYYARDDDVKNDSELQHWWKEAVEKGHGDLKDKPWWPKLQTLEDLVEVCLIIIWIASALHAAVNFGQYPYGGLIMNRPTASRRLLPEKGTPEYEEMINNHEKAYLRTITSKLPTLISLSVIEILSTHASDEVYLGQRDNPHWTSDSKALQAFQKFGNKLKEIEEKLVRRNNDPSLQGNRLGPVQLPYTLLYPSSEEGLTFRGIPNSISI

[1] = tested on: L929 mouse fibroblasts cells; parameters: method as in PMID 25798685; settings: 24-h incubation, cited from earlier work
[2] = molecular target: acetyl-cholinesterase (AChE) (Electrophorus electricus, UniProt O42275); settings: cited from earlier work
[3] = parameters: method as in PMID 25798685; settings: cited from earlier work
[4] = parameters: method as in PMID 25798685; settings: RP-TLC, methanol/water 70/30, SD < 10%; cited from earlier work
[5] = parameters: method as in PMID 25798685; settings: DPPH, cited from earlier work
[6] = ABTS•+ decolorization assay
In short: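 Compounds (10 mM DMSO stocks, diluted) added to ABTS•+ radical generated by potassium persulfate oxidation of ABTS. Decolorization followed as absorbance at room temperature, with Trolox as standard.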

[7] = In vitro lipid peroxidation of liposomes
[8] = Inhibition of linoleic acid lipid peroxidation (AAPH)
In short: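 Sodium linoleate oxidation was initiated by AAPH in 0.05 M phosphate buffer, pH 7.4, at 37 °C, with test compound present and DMSO as blank. Conjugated diene hydroperoxide formation was followed as the absorbance increase at 234 nm.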

Chain of acetyl-cholinesterase (AChE) (O42275 24-633): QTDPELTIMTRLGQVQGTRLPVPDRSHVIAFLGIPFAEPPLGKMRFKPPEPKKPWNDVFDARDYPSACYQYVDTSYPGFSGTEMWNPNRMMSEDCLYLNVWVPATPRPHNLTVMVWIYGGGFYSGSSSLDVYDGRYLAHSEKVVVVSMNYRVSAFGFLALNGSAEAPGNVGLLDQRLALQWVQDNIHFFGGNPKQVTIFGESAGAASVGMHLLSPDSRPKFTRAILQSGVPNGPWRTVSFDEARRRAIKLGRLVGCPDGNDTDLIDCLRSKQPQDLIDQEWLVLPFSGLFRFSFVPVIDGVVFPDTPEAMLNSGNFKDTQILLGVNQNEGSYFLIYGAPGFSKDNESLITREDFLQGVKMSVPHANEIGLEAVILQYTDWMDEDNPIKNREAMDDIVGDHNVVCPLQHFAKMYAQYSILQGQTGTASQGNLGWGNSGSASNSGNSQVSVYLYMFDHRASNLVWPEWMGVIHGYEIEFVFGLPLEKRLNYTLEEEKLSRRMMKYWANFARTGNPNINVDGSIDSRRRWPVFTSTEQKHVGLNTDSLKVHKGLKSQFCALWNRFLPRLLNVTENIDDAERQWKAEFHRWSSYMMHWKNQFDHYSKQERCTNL

Row | Compound | % LOX Inhb. @ 100 μM (soybean lipoxygenase) | 1 μM Average (% pi) ± σ [1] | 10 μM Average (% pi) ± σ [1] | 20 μM Average (% pi) ± σ [1] | 50 μM Average (% pi) ± σ [1] | 100 μM Average (% pi) ± σ [1] | % AChE Inhb. @ 100 μM [2] | ABTS•+ Inhb. % @ 100 μM [3] | RM [4] | RA% 100 μM 20 min [5] | RA% 100 μM 60 min [5] | IC50 (soybean lipoxygenase; soybean LOX) | ABTS•+ Inhb. % @ 100 μM [6] | % Inhb. of Liposomes LP @ 100 μM [7] | AAPH% @ 100 μM (anti-lipid peroxidation) [8]
1 | O=C(/C=C/c1cccc(Oc2ccccc2)c1)c1ccc(O)cc1 [a2, (E)-1-(4-hydroxyphenyl)-3-(3-phenoxyphenyl) prop-2-en-1-one] | 10% | 1 ± 0.5% | 3.5 ± 0.7% | 27.5 ± 8.9% | 63 ± 11.2% | 63 ± 11.2% | 26% | No | 0.36 | 3% | 4% | – | – | – | –
2 | O=C(/C=C/c1ccc(OCc2ccc(Br)cc2)cc1)c1ccc(O)cc1 [a1, (E)-3-(4-((4-bromobenzyl)oxy)phenyl)-1-(4-hydroxyphenyl) prop-2-en-1-one] | 14% | 1 ± 0.6% | 5 ± 2.8% | 5.5 ± 0.71% | 32 ± 4.9% | 32 ± 4.9% | 7% | No | 0.34 | 1% | 6% | – | – | – | –
3 | CN(C)c1ccc(/C=C/C=C/C(=O)c2ccc(O)cc2)cc1 [a3, (2E,4E)-5-(4-(dimethylamino)phenyl)-1-(4-hydroxyphenyl) penta-2,4-dien-1-one] | 56% | 14 ± 3.5% | 15 ± 0.8% | 19 ± 1.4% | 14 ± 0.7% | 14 ± 0.7% | 50% | 12% | −0.69 | 18% | 17% | 100 µM | – | – | –
4 | Cc1c(C)c2c(c(C)c1O)CCC(C)(C(=O)O)O2 (stereo not drawn) [Trolox, reference compound] | – | – | – | – | – | – | – | – | – | – | – | – | 96% | 69% | 93%
5 | O=C(/C=C/c1cccc2ccccc12)c1ccc(O)cc1 [a4, (E)-1-(4-hydroxyphenyl)-3-(naphthalen-1-yl) prop-2-en-1-one] | 44% | 8.5 ± 2.1% | 12 ± 4.2% | 29.5 ± 0.6% | 51 ± 9.9% | 51 ± 9.9% | 25% | No | −0.26 | 7% | 3% | – | – | – | –
